Measurements taken from paper PMC8102414 (Heliyon, 2021).
Converted amounts (≈) assume the structure as drawn. Like-named read-outs stand apart in the source and are kept apart here.

Assays:
in vitro [1] = type: cell-based; settings: mouse
in vitro [2] = type: cell-based; settings: mouse; remark: listed apart in the source
3T3-L1 adipocyte cells = test: Glucose consumption assay; type: cell-based; settings: for EC50: Mus musculus, 3T3-L1, read-out: Glucose consumption (IC50, μM); for Glucose consumption (IC50, μM): induction of glucose consumption, 3T3-L1 adipocyte cells, Inactive at >100 μM
3T3-L1 cells = test: in vitro; type: cell-based; settings: for toxicity to the cells: 3T3-L1 adipocyte cells, glucose consumption assay
[3] = test system: Shigella flexneri DMST 4423; test: Antimicrobial MIC, 2-fold serial dilution; settings: for MIC (μg/mL) SF: Gram-negative, Shigella flexneri (DMST 4423), Inactive at >128 μg/mL
[4] = test system: Staphylococcus aureus ATCC 25923; test: Antimicrobial MIC, 2-fold serial dilution; settings: for MIC (μg/mL) SA: Gram-positive, Staphylococcus aureus (ATCC 25923), Inactive at >128 μg/mL
[5] = test system: advanced glycation end products (AGEs); test: Glycation inhibition assay; type: biochemical; settings: Inactive at >100 μM
[6] = test system: Salmonella typhi DMST 22842; test: microbe, parasite or virus in culture; type: cell-based; settings: Gram-negative; Salmonella typhi (DMST 22842); Inactive at >128 μg/mL
[7] = test system: Streptococcus pyogenes ATCC, 19615; test: Antimicrobial MIC, 2-fold serial dilution; settings: for MIC (μg/mL) SP: Gram-positive, Streptococcus pyogenes (ATCC, 19615), Inactive at >128 μg/mL
[8] = test system: Micrococcus luteus DMST 15503; test: Antimicrobial MIC, 2-fold serial dilution; settings: for MIC (μg/mL) MT: Gram-positive, Micrococcus luteus (DMST 15503), Inactive at >128 μg/mL
[9] = test system: Escherichia coli TISTR 780; test: Antimicrobial MIC, 2-fold serial dilution; settings: Gram-negative; Escherichia coli (TISTR 780); Inactive at >128 μg/mL
[10] = test system: Pseudomonas aeruginosa ATCC 10145; test: Antimicrobial MIC, 2-fold serial dilution; settings: for MIC: Pseudomonas aeruginosa, ATCC10145, read-out: MIC (μg/mL) PA
[11] = test system: Enterococcus faecalis ATCC 29212; test: Antimicrobial MIC, 2-fold serial dilution; settings: for MIC (μg/mL) EF: Gram-positive, Enterococcus faecalis (ATCC 29212), Inactive at >128 μg/mL
[12] = test system: Salmonella typhimurium DMST 562; test: Antimicrobial MIC, 2-fold serial dilution; settings: for MIC (μg/mL) STR: Gram-negative, Salmonella typhimurium (DMST 562), Inactive at >128 μg/mL
[13] = test system: Candida albicans ATCC 10231; test: Antimicrobial MIC, 2-fold serial dilution; settings: Fungi; Candida albicans (ATCC 10231); Inactive at >128 μg/mL
RAW 264.7 cells [14] = test: Nitric oxide production inhibition assay; type: cell-based
[15] = test system: methicillin resistant Staphylococcus aureus NPRC 001R; test: Antimicrobial MIC, 2-fold serial dilution; settings: for MIC (μg/mL) MRSA: Gram-positive, Methicillin Resistant Staphylococcus aureus (NPRC 001R), Inactive at >128 μg/mL
α-amylase = α-amylase (Sus scrofa, UniProt P00690); type: biochemical; settings: Inactive at >100 μM
Sequence of α-amylase (P00690 16-511): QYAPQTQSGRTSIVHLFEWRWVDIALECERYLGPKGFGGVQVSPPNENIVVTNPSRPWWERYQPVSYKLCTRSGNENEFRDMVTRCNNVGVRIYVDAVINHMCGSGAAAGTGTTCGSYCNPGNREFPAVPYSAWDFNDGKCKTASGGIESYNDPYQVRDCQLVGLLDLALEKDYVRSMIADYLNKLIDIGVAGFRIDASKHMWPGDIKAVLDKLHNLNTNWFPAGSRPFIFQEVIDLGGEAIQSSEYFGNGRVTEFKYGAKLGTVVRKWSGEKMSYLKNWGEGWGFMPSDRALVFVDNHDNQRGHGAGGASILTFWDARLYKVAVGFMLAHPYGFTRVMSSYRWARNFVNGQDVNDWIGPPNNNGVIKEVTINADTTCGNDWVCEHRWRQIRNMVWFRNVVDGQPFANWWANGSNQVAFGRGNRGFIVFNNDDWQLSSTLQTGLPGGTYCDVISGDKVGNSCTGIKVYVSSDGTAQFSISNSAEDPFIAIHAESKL

RAW 264.7 cells [16] = test: in vitro; type: cell-based; settings: MTT assay
L6 myotube cells = test: Glucose uptake assay; type: cell-based; settings: Inactive at >100 μM
α-glucosidase = α-glucosidase (Saccharomyces cerevisiae, UniProt P53341); type: biochemical; settings: Inactive at >100 μM
Sequence of α-glucosidase (P53341 whole entry): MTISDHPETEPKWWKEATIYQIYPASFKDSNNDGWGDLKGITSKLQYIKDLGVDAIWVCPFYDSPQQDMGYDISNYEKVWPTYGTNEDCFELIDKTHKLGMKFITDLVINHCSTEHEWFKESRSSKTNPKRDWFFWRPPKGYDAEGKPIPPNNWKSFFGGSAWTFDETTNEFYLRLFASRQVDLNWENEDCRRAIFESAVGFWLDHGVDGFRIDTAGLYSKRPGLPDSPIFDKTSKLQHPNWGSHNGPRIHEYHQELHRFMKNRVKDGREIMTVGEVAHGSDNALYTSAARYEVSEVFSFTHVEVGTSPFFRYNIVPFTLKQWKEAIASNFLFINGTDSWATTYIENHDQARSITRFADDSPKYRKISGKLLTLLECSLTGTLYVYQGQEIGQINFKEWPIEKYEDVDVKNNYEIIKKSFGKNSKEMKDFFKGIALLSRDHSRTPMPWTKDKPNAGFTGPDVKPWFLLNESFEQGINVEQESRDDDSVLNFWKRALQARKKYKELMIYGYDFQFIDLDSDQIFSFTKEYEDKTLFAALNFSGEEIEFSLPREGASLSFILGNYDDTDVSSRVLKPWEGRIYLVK

[17] = test system: Gram-positive bacteria and fungi; test: Antimicrobial MIC, summary over Gram-positive bacteria and fungi; settings: read-out: MIC values against Gram-positive bacteria and fungi
S. aureus and MRSA [18] = settings: previous study; ref Innok et al., 2010; cited from earlier work
S. aureus and MRSA [19] = test: Antibacterial MIC against S. aureus and MRSA; settings: Staphylococcus aureus, read-out: MIC values against S. aureus and MRSA
[20] = LPS-stimulated NO production in RAW 264.7 cells, Inactive at >100 μM

Row | Molecule | viability (in vitro [1]) [%] | viability (in vitro [2]) [%] | EC50 (3T3-L1 adipocyte cells) [µM] | toxicity to the cells (3T3-L1 cells) | MIC (μg/mL) SF [3] | MIC (μg/mL) SA [4] | Glycation inhibition (IC50, μM) [5] | MIC (μg/mL) ST [6] | MIC (μg/mL) SP [7] | MIC (μg/mL) MT [8] | MIC (μg/mL) EC [9] | MIC [10] [µg/mL] | MIC (μg/mL) EF [11] | MIC (μg/mL) STR [12] | MIC (μg/mL) CA [13] | MIC (μg/mL) MRSA [15] | Cell viability raw 264.7 cells (%) (RAW 264.7 cells [16]) | Glucose consumption (IC50, μM) (3T3-L1 adipocyte cells) | NO Inhibition (IC50, μM) (RAW 264.7 cells [14]; [20]) | other results
1 | CN(C)C(=N)N=C(N)N [Metformin, metformin, reference compound] | 96.1 ± 0.9 | 99.4 ± 0.6 | 47.2 ± 1.17 |  |  |  |  |  |  |  |  |  |  |  |  |  |  |  |  | 
2 | CC1(C)C=Cc2cc(C=O)ccc2O1 [Compound 27, 2,2-dimethyl-2H-chromene-6-carboxaldehyde] | 98.2 ± 1.7 | 97.9 ± 1.2 | 29.1 ± 0.86 | without toxicity to the cells | Inactive | Inactive | Inactive | Inactive | Inactive | Inactive | Inactive | 128 (≈ 680 µM) | Inactive | Inactive | Inactive | Inactive |  |  |  | IC50 (RAW 264.7 cells [14]; Mus musculus, RAW264.7, read-out: NO Inhibition (IC50, μM)): 52.5 ± 0.56 µM
3 | 4′-hydroxy-6,3′,5′-triprenylisoflavanone [Compound 24] |  |  |  |  | Inactive | 128 µg/mL |  | 128 µg/mL | 128 µg/mL | Inactive | 128 µg/mL |  | Inactive | Inactive | 128 µg/mL | 128 µg/mL | 3.7 ± 0.1 | Inactive | Inactive | Cell viability of 3T3-L1 cells (%) (3T3-L1 cells; MTT assay): 39.7 ± 0.7%; α-Amylase inhibition (IC50, μM) (α-amylase): Inactive; IC50 ([5]; read-out: Glycation inhibition (IC50)): 40.5 ± 0.37 µM; MIC (μg/mL) PA ([10]; Gram-negative, Pseudomonas aeruginosa (ATCC 10145), Inactive at >128 μg/mL): 128 µg/mL; Glucose uptake (fold) (L6 myotube cells): Inactive; α-Glucosidase inhibition (IC50, μM) (α-glucosidase): Inactive
4 | COc1c2c(cc3oc(=O)ccc13)OC(C)(C)C=C2 [Compound 26, xanthoxyletin] |  |  | 33.4 ± 0.34 | without toxicity to the cells | Inactive | Inactive | Inactive | Inactive | Inactive | Inactive | Inactive | 128 (≈ 496 µM) | Inactive | Inactive | Inactive | Inactive |  |  | Inactive | 
5 | COc1ccc2c(c1CC=C(C)C)O[C@H]1c3ccc(O)cc3OC[C@@H]21 [Compound 10, sandwicensin] |  |  |  |  |  |  | Inactive | Inactive |  |  | Inactive | 128 (≈ 378 µM) |  |  |  |  |  | Inactive | Inactive | MIC ([3]; Shigella flexneri, DMST4423, read-out: MIC (μg/mL) SF): 128 µg/mL (≈ 378 µM); MIC ([4]; Staphylococcus aureus, ATCC25923, read-out: MIC (μg/mL) SA): 64 µg/mL (≈ 189 µM); MIC ([7]; Streptococcus pyogenes, read-out: MIC (μg/mL) SP): 8 µg/mL (≈ 23.6 µM); MIC ([8]; Micrococcus luteus, DMST15503, read-out: MIC (μg/mL) MT): 8 µg/mL (≈ 23.6 µM); MIC [17]: 8 to 64 µg/mL (≈ 23.6 to 189 µM); MIC ([11]; Enterococcus faecalis, ATCC29212, read-out: MIC (μg/mL) EF): 8 µg/mL (≈ 23.6 µM); MIC values against S. aureus and MRSA (reported) (S. aureus and MRSA [18]): 8 to 64 µg/mL; MIC ([12]; Salmonella enterica, TYPHIMURIUM, read-out: MIC (μg/mL) STR): 128 µg/mL (≈ 378 µM); MIC (S. aureus and MRSA [19]): 8 to 64 µg/mL (≈ 23.6 to 189 µM); MIC ([15]; Staphylococcus aureus, MRSA, read-out: MIC (μg/mL) MRSA): 8 µg/mL (≈ 23.6 µM)
6 | N=C(N)NN [Aminoguanidine, aminoguanidine, reference compound] |  |  |  |  |  |  |  |  |  |  |  |  |  |  |  |  | 97.9 ± 0.8 |  |  | IC50 (RAW 264.7 cells [14]; read-out: NO Inhibition (IC50), LPS-stimulated NO production in RAW 264.7 cells, Inactive at >100 μM): 22.4 ± 0.78 µM
